Reference: patent US10493045B2, “Method for treating alcohol dependence or alcohol abuse” (priority 2016, dated 2019)
Values joined by “and” are separate entries in the source; they are usually repeats but may differ in a detail not shown here. Equal entries are not always repeated.

Experiments:
[1] = test system: opioid-dependent patients undergoing methadone maintenance treatment; settings: add-on memantine; cited from earlier work
NMDA receptors = settings: read-out: 50% inhibition concentration [IC50], block of NMDA receptors; cited from earlier work
[2] = Plasma memantine concentration in treated patients; type: in vivo, human; settings: patients given 5 mg/day of memantine
[3] = test system: BD-II patients with comorbid alcohol dependence; test: 12-week open-label low-dose add-on memantine treatment: clinical severity (HDRS, YMRS) and alcohol use; type: in vivo, human
Description: BD-II patients with comorbid alcohol dependence were recruited from outpatient and inpatient settings in Taiwan. All patients were initially evaluated by an attending psychiatrist and then given a structural interview by a clinical psychologist to determine according to the Diagnostic and Statistical Manual of Mental Disorders, Fourth Edition, Text Revision (DSM-IV-TR), and the Chinese version of the Modified Schedule of Affective Disorder and Schizophrenia-Life Time (SADS-L) was used, which had good inter-rater reliability. Patients suffering from major mental illnesses other than BD-II and alcohol dependence and patients who had taken memantine within 1 week before the study began were excluded.
(§1) Eligible patients were given low-dose (less than 5 mg/day) add-on memantine (5 mg/day) after an initial screening, with open-label valproic acid (VPA) treatment (500 or 1000 mg/day or […] in plasma) which had begun when they joined the study. The severity of mood symptoms was assessed by using the Hamilton Depression Rating Scale (HDRS) and the Young Mania Rating Scale (YMRS). Only patients with moderate mood symptoms (HDRS≥18 or YMRS≥14) were recruited. The exact amount of alcohol used by each patient was assessed by using the Chinese version of the Modified SADS-L. Symptom severity and alcohol use were assessed at baseline, and treatment responses were measured on day 7 of weeks 1, 2, 4, 8, and 12. Concomitant benzodiazepine medications (lorazepam<8 mg and chlordiazepoxide<240 mg) were used for nighttime sedation and withdrawal symptoms during the study. Up to 20 mg/day of fluoxetine was permitted for associated depressive symptoms, and 1-3 mg of risperidone was used for hypomanic symptoms.
(§2) The intent to-treat (ITT) analysis set included all patients who had taken at least one dose of the studied drug, and had undergone one baseline assessment and at least one post-baseline assessment. All outcome variables—HDRS, YMRS, cytokine levels, plasma BDNF levels, and metabolic parameters—in the ITT set were analyzed. Missing data were filled in by using the last observation carried forward (LOCF) method.
(§3) The overall within-group changes of each outcome over 12 weeks were analyzed by using generalized estimating equations (GEEs). The present invention ran 10 models and each outcome was deemed as a dependent variable. In each model, treatment duration, gender, and age were considered as independent variables. The covariance structure used was the autoregressive (AR [1]) model. The significance of change of each outcome over 12-week follow-up was represented by the variable “treatment duration.” Linear regression analysis was used to analyze correlations between changes in alcohol use and changes in cytokine and BDNF levels in 12 weeks. Changes in alcohol use were dependent variables, and changes in HDRS and YMRS scores, and in plasma cytokine and BDNF levels (controlled for gender, age, and baseline clinical severity) were independent variables. SPSS 22.0 for Windows was used for all statistical computations. Significance was set at p<0.05.

[4] = test system: plasma TNF-α, CRP, TGF-β1, IL-8, IL-10, and BDNF; test: Plasma cytokine and BDNF levels by ELISA during 12-week add-on memantine treatment; type: in vivo, human
Protocol: as §1
Ten milliliters of whole blood was withdrawn from the antecubital vein of each patient when clinical severity was assessed: at baseline, and on day 7 of weeks 1, 2, 4, 8, and 12. Plasma, which was isolated from the whole blood after it had been centrifuged at 3000 g for 15 min at 4° C., was immediately stored at −80° C. The enzyme-linked immunosorbent assay was used to quantify the cytokine levels by ELISA reader (SpectraMax® M2e, Molecular Devices, USA). Sample processing and data analysis were done according to the manufacturer's instructions. The immunological parameters—plasma TNF-α, CRP, TGF-β1, IL-8, IL-10, and BDNF—were analyzed.
as §2, §3

[5] = test system: morphine-induced conditioned-place-preference behavior; settings: rats; low-dose 0.02 mg/kg; cited from earlier work
alcohol use = settings: up to 40 mg/day of memantine; cited from earlier work
post-dependent (PD) rats = settings: injection 25 mg/kg; cited from earlier work

CC12CC3CC(C)(C1)CC(N)(C3)C2 [memantine]
Plasma tumor necrosis factor-α (TNF-α) levels [1]: significantly downregulates | Required methadone dose [1]: reduces | Transforming growth factor-β1 (TGF-β1) levels [1]: upregulates | IC50 (NMDA receptors): 2 to 3 µM | Plasma memantine concentrations [2]: 10-50 ng/ml and 0.05-0.2 μM | Patients who stopped drinking during the first week of memantine treatment ([3]; 15 patients of 45, first week): 33.3% | Patients who reduced their alcohol use to 0 unit after 12 weeks ([3]; 22/26 patients, after 12 weeks): 84.6% | HDRS, mean at endpoint ([3]; BD-II patients with comorbid alcohol dependence, add-on memantine less than 5 mg/day plus VPA, endpoint 12 weeks, n = 26, baseline mean 14.4 (n = 45)): 9.4 | Reduction of alcohol use after 12 weeks of treatment, all of the patients ([3]; after 12 weeks): > 50% | YMRS, mean at endpoint ([3]; endpoint 12 weeks, n = 26, baseline mean 13.8 (n = 45)): 9.4 | Alcohol use (unit), mean at endpoint ([3]; endpoint 12 weeks, n = 26, baseline mean 73.9 (n = 45)): 11.8 unit | IL-10, mean at endpoint ([4]; endpoint 12 weeks, n = 26, baseline mean 2.09): 1.92 | TNF-α, mean at endpoint ([4]; endpoint 12 weeks, n = 26, baseline mean 2.64): 2.66 | IL-8, mean at endpoint ([4]; endpoint 12 weeks, n = 26, baseline mean 17.64): 10.22 | CRP, mean at endpoint ([4]; endpoint 12 weeks, n = 26, baseline mean 2960.48): 2382.29 | BDNF, mean at endpoint ([4]; endpoint 12 weeks, n = 26, baseline mean 16196.64): 18910.46 | TGF-β1, mean at endpoint ([4]; endpoint 12 weeks, n = 26, baseline mean 30884.32): 27653.85 | Change in TGF-β1 over 12 weeks of treatment ([4]; within-group change, GEE, p 0.080): −3586.37 | Change in IL-10 over 12 weeks of treatment ([4]; within-group change, GEE, p 0.605): −0.182 | Change in TNF-α over 12 weeks of treatment ([4]; within-group change, GEE, p 0.89): 0.04 | Morphine-induced conditioned-place-preference behavior [5]: abolishes | Alcohol use as compared to placebo (alcohol use): not significantly reduced | Alcohol drinking during acute withdrawal (post-dependent (PD) rats): reduced | Relapses of alcohol dependence after protracted abstinence (post-dependent (PD) rats): did not reduce
